Assay results as given in article PMC9080521, “Molecular basis of rutin inhibition of protein disulfide isomerase (PDI) by combined in silico and experimental methods” (RSC Advances, 2018).
In brackets after ≈: the same amount, converted by molar mass. Several values for one entry are separate records, joined by “and”; a condition that tells them apart may be missing. Equal values may be shown once.

How the values were obtained:
full-length human PDI = full-length human PDI (Homo sapiens, UniProt P07237); assay: Fluorescence-based direct binding assay; conditions: protein 18 μM, excitation 430 nm, emission 530 nm, n=3, Standard Error 0.18 μM; read-out: IC50 (binding affinity, fluorescence)
Procedure: (§1) 2. Binding affinity (IC50) of rutin to human or murine MBP-fused PDI proteins The MBP-fused PDI proteins (18 μМ) were incubated with a gradient of 10 rutin’s concentrations differed by 2- or 3-fold and 3 repetitions in 384-well black plate at room temperature for 30 min before measurements. The total assay volume was filled to 100 μL using the assay buffer (pH 7.4) contains 150 mM NaCl, 20 mM Tris, 1 mM EDTA, 1 mM β-ME and 5% glycerin. The fluorescence emission spectrum of the mixture were measured with the excitation at 430 nm and the emission at 530 nm at room temperature on a BioTek Synergy microplate reader with a sensitivity of 100. The data were analyzed by GraphPad Prism (Fig. S3).

human MBP-PDI-b′x = molecular target: T1, human MBP-PDI-b′x (Homo sapiens, UniProt P07237); assay: Fluorescence-based direct binding assay; conditions: protein 18 μM, excitation 430 nm, emission 530 nm, n=3, Standard Error 0.16 μM; read-out: IC50 (binding affinity, fluorescence)
T1 construct: The human MBP-PDI-b′x (235–369); His-tag; made in house; host or cells: E. coli BL21 (DE3)
Procedure: as §1

human MBP-PDI-b′xa′ = molecular target: T2, human MBP-PDI-b′xa′ (Homo sapiens, UniProt P07237); assay: Fluorescence-based direct binding assay; conditions: protein 18 μM, excitation 430 nm, emission 530 nm, n=3, Standard Error 0.14 μM; read-out: IC50 (binding affinity, fluorescence)
T2 construct: MBP-PDI-b′xa′(235–479); His-tag; made in house; host or cells: E. coli BL21 (DE3)
Procedure: as §1

murine MBP-mPDI-b′x = molecular target: T3, murine MBP-mPDI-b′x (Mus musculus, UniProt P09103); assay: Fluorescence-based direct binding assay; conditions: protein 18 μM, excitation 430 nm, emission 530 nm, n=3, Standard Error 0.15 μM; read-out: IC50 (binding affinity, fluorescence)
T3 construct: The murine MBP-mPDI-b′x (236–369); His-tag; made in house; host or cells: E. coli BL21 (DE3)
Procedure: as §1

murine MBP-mPDI-b′xa′ = molecular target: T4, murine MBP-mPDI-b′xa′ (Mus musculus, UniProt P09103); assay: Fluorescence-based direct binding assay; conditions: protein 18 μM, excitation 430 nm, emission 530 nm, n=3, Standard Error 0.15 μM; read-out: IC50 (binding affinity, fluorescence)
T4 construct: MBP-mPDI-b′xa′ (236–477); His-tag; made in house; host or cells: E. coli BL21 (DE3)
Procedure: as §1

MBP-PDI-b′xa′ E359A = molecular target: T5, MBP-PDI-b′xa′ E359A (Homo sapiens, UniProt P07237, E359A); assay: Isothermal titration calorimetry (ITC); assay type: binding; conditions: 25 °C
T5 construct: MBP-PDI-b′xa′(235–479); His-tag; made in house; host or cells: E. coli BL21 (DE3)
Procedure: (§2) Microcalorimetry titration of rutin to PDI recombinant and mutant proteins used a MicroCal ITC200 microcalorimeter (GE Healthcare). PDI recombinant proteins, which concentration ranges from 25 μM to 50 μM, were added into the cell (about 300 μL). Rutin, with concentration ranging from 500 μM to 1 mM, was injected from syringe to titrate the protein in cell (almost 40 μL). The experiment was performed at 25 °C with a equilibration time of 10 min, the reference power was set to 6.25 μcal s^−1. The process including 25 injections, each of 1, 2 or 2.5 μL rutin, in a duration of 3 s, and the interval time between two injections was 180 s. Data was analyzed with MicroCal Origin (MicroCal).
(§3) Next, we resorted to a more sensitive method, isothermal titration calorimetry (ITC), to measure the direct binding. Due to the weak interaction, this method requires large amounts of high-purity protein samples (about 240 μL at 20–50 μM) to be titrated by the highest concentration of rutin (its water solubility of about 200 μM), so that the release of heat as a result of complex formation reached plateau phase rapidly and was enough to be measured. A problem we encountered is that the starting phase of the S-shape curve of heat measurement cannot always be resolved using the typical titration program of ITC, thus affecting the accuracy of dissociation constant (Kd) measurement from the S-shape ITC curve. This was due to the use of equal volume of small molecule titrant (∼2.5 μL) used in the typical ITC titration. Therefore, we established an optimized ITC titration scheme by using variable drop sizes, which started with small drops (1 μL at first ten times of injection) and ended with large drops (2 μL). We thus obtained S-shape ITC curves with well-defined upper and lower platforms (Fig. 5 and S6 ^†), which allowed the accurate measurements of Kd values.

MBP-PDI-b′xa′ E359K = molecular target: T6, MBP-PDI-b′xa′ E359K (Homo sapiens, UniProt P07237, E359K); assay: Isothermal titration calorimetry (ITC); assay type: binding; conditions: 25 °C
T6 construct: MBP-PDI-b′xa′(235–479); His-tag; made in house; host or cells: E. coli BL21 (DE3)
Procedure: as §2, §3

MBP-PDI-b′xa′ H354A = molecular target: T7, MBP-PDI-b′xa′ H354A (Homo sapiens, UniProt P07237, H354A); assay: Isothermal titration calorimetry (ITC); assay type: binding
T7 construct: MBP-PDI-b′xa′(235–479); His-tag; made in house; host or cells: E. coli BL21 (DE3)
Procedure: as §2, §3

MBP-PDI-b′xa′ K328E = molecular target: T8, MBP-PDI-b′xa′ K328E (Homo sapiens, UniProt P07237, K328E); assay: Isothermal titration calorimetry (ITC); assay type: binding; conditions: 25 °C
T8 construct: MBP-PDI-b′xa′(235–479); His-tag; made in house; host or cells: E. coli BL21 (DE3)
Procedure: as §2, §3

MBP-PDI-b′xa′ L355R = molecular target: T9, MBP-PDI-b′xa′ L355R (Homo sapiens, UniProt P07237, L355R); assay: Isothermal titration calorimetry (ITC); assay type: binding; conditions: 25 °C
T9 construct: MBP-PDI-b′xa′(235–479); His-tag; made in house; host or cells: E. coli BL21 (DE3)
Procedure: as §2, §3

wt MBP-PDI-b′xa′ = molecular target: T10, wt MBP-PDI-b′xa′ (Homo sapiens, UniProt P07237); assay: Isothermal titration calorimetry (ITC); assay type: binding; conditions: 25 °C
T10 construct: MBP-PDI-b′xa′(235–479); His-tag; made in house; host or cells: E. coli BL21 (DE3)
Procedure: as §2, §3

Water solubility = assay type: physicochemical
PDI = tested on: PDI; design: method as in PMID 22565308, PMID 26240139; conditions: dose-dependent; cited from earlier work
ERp5 = tested on: ERp5; design: method as in PMID 22565308; conditions: cited from earlier work
ERp72 = tested on: ERp72; design: method as in PMID 22565308; conditions: cited from earlier work
thioredoxin = tested on: thioredoxin; design: method as in PMID 22565308; conditions: cited from earlier work

T8 sequence (P07237 235-479 K328E): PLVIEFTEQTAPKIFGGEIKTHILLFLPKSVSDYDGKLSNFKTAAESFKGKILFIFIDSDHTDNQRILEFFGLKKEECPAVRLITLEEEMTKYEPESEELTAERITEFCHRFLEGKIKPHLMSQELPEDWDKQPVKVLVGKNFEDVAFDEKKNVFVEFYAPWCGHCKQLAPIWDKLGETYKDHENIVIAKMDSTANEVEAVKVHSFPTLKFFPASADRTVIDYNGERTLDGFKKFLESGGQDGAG
T6 sequence (P07237 235-479 E359K): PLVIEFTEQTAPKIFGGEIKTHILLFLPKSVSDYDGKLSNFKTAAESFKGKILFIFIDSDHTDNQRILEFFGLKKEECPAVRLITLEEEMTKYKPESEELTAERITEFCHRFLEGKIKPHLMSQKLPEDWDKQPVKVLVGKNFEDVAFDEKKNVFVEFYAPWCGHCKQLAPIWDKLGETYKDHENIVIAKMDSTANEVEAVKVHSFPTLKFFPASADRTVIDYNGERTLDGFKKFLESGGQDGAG
T5 sequence (P07237 235-479 E359A): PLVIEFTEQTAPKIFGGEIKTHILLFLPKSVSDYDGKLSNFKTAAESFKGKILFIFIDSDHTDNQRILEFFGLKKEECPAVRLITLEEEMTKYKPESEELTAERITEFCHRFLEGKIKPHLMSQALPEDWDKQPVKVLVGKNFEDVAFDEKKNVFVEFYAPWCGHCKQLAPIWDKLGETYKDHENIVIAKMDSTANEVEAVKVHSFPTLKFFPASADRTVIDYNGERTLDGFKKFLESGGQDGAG
T9 sequence (P07237 235-479 L355R): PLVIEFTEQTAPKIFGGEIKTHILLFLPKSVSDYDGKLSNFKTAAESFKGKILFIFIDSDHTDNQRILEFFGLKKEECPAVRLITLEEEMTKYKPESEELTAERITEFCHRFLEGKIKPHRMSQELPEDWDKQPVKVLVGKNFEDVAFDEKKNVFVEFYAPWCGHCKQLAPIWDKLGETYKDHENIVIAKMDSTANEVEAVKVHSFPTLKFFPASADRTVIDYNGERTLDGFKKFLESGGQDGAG
T7 sequence (P07237 235-479 H354A): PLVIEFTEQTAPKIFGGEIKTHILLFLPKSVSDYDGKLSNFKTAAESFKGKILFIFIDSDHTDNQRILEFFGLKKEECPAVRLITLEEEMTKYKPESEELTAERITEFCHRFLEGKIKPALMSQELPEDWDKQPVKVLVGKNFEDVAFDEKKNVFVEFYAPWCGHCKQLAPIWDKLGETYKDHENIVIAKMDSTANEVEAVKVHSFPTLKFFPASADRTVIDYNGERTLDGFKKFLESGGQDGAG
T10 sequence (P07237 235-480): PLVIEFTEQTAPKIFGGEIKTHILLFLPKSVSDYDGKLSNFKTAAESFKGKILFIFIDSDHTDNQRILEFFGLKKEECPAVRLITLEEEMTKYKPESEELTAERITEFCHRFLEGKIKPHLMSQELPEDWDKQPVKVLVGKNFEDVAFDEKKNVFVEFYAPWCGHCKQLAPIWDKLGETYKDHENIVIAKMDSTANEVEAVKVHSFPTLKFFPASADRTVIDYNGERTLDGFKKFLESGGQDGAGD
T1 sequence (P07237 235-369): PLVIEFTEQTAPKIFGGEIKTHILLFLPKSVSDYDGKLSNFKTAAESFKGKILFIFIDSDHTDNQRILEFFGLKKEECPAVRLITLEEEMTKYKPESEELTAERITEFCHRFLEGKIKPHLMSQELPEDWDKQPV
T3 sequence (P09103 236-369): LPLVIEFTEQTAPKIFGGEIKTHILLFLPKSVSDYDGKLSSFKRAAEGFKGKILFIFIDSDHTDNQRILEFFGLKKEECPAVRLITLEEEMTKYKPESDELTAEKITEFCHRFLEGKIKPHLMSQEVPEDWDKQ
T4 sequence (P09103 236-477): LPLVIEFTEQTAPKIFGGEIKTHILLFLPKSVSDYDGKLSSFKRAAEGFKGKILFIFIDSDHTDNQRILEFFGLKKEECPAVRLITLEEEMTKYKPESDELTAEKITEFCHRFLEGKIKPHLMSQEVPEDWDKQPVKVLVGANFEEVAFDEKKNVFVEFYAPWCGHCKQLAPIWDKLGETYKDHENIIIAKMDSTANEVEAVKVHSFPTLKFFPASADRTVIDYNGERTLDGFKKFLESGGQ
T2 sequence (P07237 235-479): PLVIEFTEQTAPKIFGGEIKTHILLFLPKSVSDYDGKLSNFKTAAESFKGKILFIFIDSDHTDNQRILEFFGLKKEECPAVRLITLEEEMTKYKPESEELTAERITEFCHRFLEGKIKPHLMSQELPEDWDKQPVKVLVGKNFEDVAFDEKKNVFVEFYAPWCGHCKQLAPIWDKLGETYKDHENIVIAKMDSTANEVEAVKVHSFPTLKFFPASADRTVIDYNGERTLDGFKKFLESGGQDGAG
full-length human PDI, sequence (P07237 18-508): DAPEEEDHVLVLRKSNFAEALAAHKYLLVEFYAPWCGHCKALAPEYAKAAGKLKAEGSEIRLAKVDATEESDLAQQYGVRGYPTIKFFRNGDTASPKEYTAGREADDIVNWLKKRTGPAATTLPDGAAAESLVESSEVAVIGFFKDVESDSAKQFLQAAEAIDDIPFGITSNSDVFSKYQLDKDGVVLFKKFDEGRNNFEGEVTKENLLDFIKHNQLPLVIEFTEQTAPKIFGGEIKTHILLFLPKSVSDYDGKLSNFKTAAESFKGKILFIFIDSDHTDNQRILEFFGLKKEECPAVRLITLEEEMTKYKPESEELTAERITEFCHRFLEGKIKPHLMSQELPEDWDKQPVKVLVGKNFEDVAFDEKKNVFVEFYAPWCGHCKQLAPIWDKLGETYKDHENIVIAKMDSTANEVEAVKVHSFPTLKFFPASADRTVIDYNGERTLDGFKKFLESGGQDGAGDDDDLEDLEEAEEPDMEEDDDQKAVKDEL

SMILES: C[C@@H]1O[C@@H](OC[C@H]2O[C@@H](Oc3c(-c4ccc(O)c(O)c4)oc4cc(O)cc(O)c4c3=O)[C@H](O)[C@@H](O)[C@@H]2O)[C@H](O)[C@H](O)[C@H]1O [rutin]
- IC50 (full-length human PDI): 31.1 µM
- IC50 (human MBP-PDI-b′x): 18.7 µM
- IC50 (human MBP-PDI-b′xa′): 28.8 µM
- IC50 (murine MBP-mPDI-b′x): 15.7 µM
- IC50 (murine MBP-mPDI-b′xa′): 26.3 µM
- Kd (MBP-PDI-b′xa′ E359A): 4.1 ± 0.74 µM
- N (stoichiometry ratio) (MBP-PDI-b′xa′ E359A): 1.18 ± 0.03
- ΔG (MBP-PDI-b′xa′ E359A): -7.39 ± 0.49 kcal/mol
- Kd (MBP-PDI-b′xa′ E359K): 4.48 ± 0.58 µM
- N (stoichiometry ratio) (MBP-PDI-b′xa′ E359K): 1.21 ± 0.02
- ΔG (MBP-PDI-b′xa′ E359K): -7.31 ± 0.45 kcal/mol
- decrease of binding to H354A mutant compared with wt MBP-PDI-b′xa′ (MBP-PDI-b′xa′ H354A; ITC Kd 5.98 vs 2.39 μM): about 3 times
- Kd (MBP-PDI-b′xa′ H354A; ITC, 25 °C, H354A): 5.98 ± 1.08 µM
- N (stoichiometry ratio) (MBP-PDI-b′xa′ H354A; ITC, 25 °C, H354A): 0.72 ± 0.03
- ΔG (MBP-PDI-b′xa′ H354A; ITC, 25 °C, H354A): -7.15 ± 0.86 kcal/mol
- Kd (MBP-PDI-b′xa′ K328E): 2.29 ± 0.36 µM
- N (stoichiometry ratio) (MBP-PDI-b′xa′ K328E): 0.86 ± 0.02
- ΔG (MBP-PDI-b′xa′ K328E): -7.72 ± 0.31 kcal/mol
- Kd (MBP-PDI-b′xa′ L355R): 3.5 ± 0.39 µM
- N (stoichiometry ratio) (MBP-PDI-b′xa′ L355R): 1.93 ± 0.03
- ΔG (MBP-PDI-b′xa′ L355R): -7.46 ± 0.23 kcal/mol
- Kd (wt MBP-PDI-b′xa′): 2.31 µM and 2.39 µM
- solubility (Water solubility): ~200 µM (≈ 122 µg/mL)
- IC50 of inhibition of PDI activities (PDI): micromolar range
- inhibition of ERp5 (ERp5): did not inhibit
- inhibition of ERp72 (ERp72): did not inhibit
- inhibition of thioredoxin (thioredoxin): did not inhibit
